This note sets out measurements from PubChem BioAssay AID270 (DTP/NCI, 2004).

In the test the test system is BDF1 mice, s.c. Lewis lung carcinoma, T/C %. As to the kind of experiment: NCI In Vivo Anticancer Drug Screen. Data for tumor model Lewis Lung Carcinoma (subcutaneous) in B6D2F1 (BDF1) mice. In outline:
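Tumor-bearing mice were treated with test compound, and either survival or tumor size was recorded. Values are the treated-group measurement divided by that of the vehicle-treated control group.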

The mark [1] stands for this setting: endpoint: median survival time, dose: 6.25 mg/kg/injection, schedule: Q01DX009 (ip), vehicle: gum acacia, higher = longer survival.
Setting [2] is: endpoint: median survival time, dose: 12.5 mg/kg/injection, schedule: Q01DX009 (ip), vehicle: gum acacia, higher = longer survival.
Where [3] appears, read: endpoint: median survival time, dose: 25.0 mg/kg/injection, schedule: Q01DX009 (ip), vehicle: gum acacia, higher = longer survival.
The mark [4] stands for this setting: endpoint: mean tumor weight, dose: 500.0 mg/kg/injection, schedule: Q01DX011 (ip), vehicle: other, higher = larger tumour.

The structures appear in SMILES notation. Several values for one entry are separate records, joined by “and”; a condition that tells them apart may be missing. Equal entries are not always repeated. Records with an inconclusive call do not appear.

For `COc1cccc(/C=N/NC(=O)c2ccccc2N2CCCC2)c1O`, the T/C (endpoint: median survival time, dose: 100.0 mg/kg/injection, schedule: Q01DX009 (ip), vehicle: olive oil, sesame oil, peanut oil, higher = longer survival) is 90 % of control.

Turning to `OCC1OC(n2cnc3c2NC=NC[C@H]3O)CC1O` (stereo partly specified), the T/C is, setting by setting: (endpoint: median survival time, dose: 0.05 mg/kg/injection, schedule: Q03HX024 (ip), vehicle: saline, higher = longer survival) 110 % of control; (endpoint: median survival time, dose: 0.1 mg/kg/injection, schedule: Q03HX024 (ip), vehicle: saline, higher = longer survival) 86 % of control; (endpoint: median survival time, dose: 0.4 mg/kg/injection, schedule: Q03HX024 (ip), vehicle: saline, higher = longer survival) 90 % of control.

On to `CC(=O)O[C@]1(C(C)=O)CC[C@H]2[C@@H]3C[C@H](C)C4=CC(=O)CC[C@]4(C)[C@H]3CC[C@@]21C`, for which the T/C runs as follows: (endpoint: median survival time, dose: 50.0 mg/kg/injection, schedule: Q01DX009 (ip), vehicle: Klucel (hydroxypropylcellulose) (HPC), higher = longer survival) 203 % of control; (endpoint: median survival time, dose: 100.0 mg/kg/injection, schedule: Q01DX009 (ip), vehicle: Klucel (hydroxypropylcellulose) (HPC), higher = longer survival) 204 % of control; (endpoint: median survival time, dose: 200.0 mg/kg/injection, schedule: Q01DX009 (ip), vehicle: Klucel (hydroxypropylcellulose) (HPC), higher = longer survival) 119 % of control; (endpoint: median survival time, dose: 400.0 mg/kg/injection, schedule: Q01DX009 (ip), vehicle: Klucel (hydroxypropylcellulose) (HPC), higher = longer survival) 203 % of control.

In the case of `CC(=O)[C@@]1(O)CC[C@H]2[C@@H]3C[C@H](C)C4=CC(=O)C=C[C@]4(C)[C@@]3(F)[C@@H](O)C[C@@]21C`, the T/C by setting is: (endpoint: mean tumor weight, dose: 25.0 mg/kg/injection, schedule: Q01DX011 (sc), vehicle: steriod suspending solution, higher = larger tumour) 28 % of control; (endpoint: mean tumor weight, dose: 50.0 mg/kg/injection, schedule: Q01DX011 (sc), vehicle: steriod suspending solution, higher = larger tumour) 18 % of control.

As for `COC(C(=O)C(O)C(C)O)C1Cc2cc3cc(OC4CC(OC(C)=O)C(OC5CC(O)C(OC)C(C)O5)C(C)O4)cc(O)c3c(O)c2C(=O)C1OC1CC(OC2CC(OC3CC(C)(O)C(OC(=O)C(C)C)C(C)O3)C(O)C(C)O2)C(O)C(C)O1` (stereo unspecified), the T/C is 97 % of control (endpoint: median survival time, dose: 0.5 mg/kg/injection, schedule: Q01DX009 (ip), vehicle: saline with Tween-80, higher = longer survival) and 94 % of control (endpoint: median survival time, dose: 2.0 mg/kg/injection, schedule: Q01DX009 (ip), vehicle: saline with Tween-80, higher = longer survival).

With `CN1CCCC1c1cccnc1` (stereo unspecified), the T/C was 62 % of control (endpoint: mean tumor weight, dose: 1.0 mg/kg/injection, schedule: Q01DX011 (ip), vehicle: carboxymethylcellulose (CMC), higher = larger tumour); 75 % of control (endpoint: mean tumor weight, dose: 2.0 mg/kg/injection, schedule: Q01DX011 (ip), vehicle: carboxymethylcellulose (CMC), higher = larger tumour); 72 % of control (endpoint: mean tumor weight, dose: 4.0 mg/kg/injection, schedule: Q01DX011 (ip), vehicle: carboxymethylcellulose (CMC), higher = larger tumour).

For the compound `O=C(O)C1(NO)CCCC1`, the T/C reads like this: (endpoint: mean tumor weight, dose: 55.0 mg/kg/injection, schedule: Q01DX011 (ip), vehicle: saline, higher = larger tumour) 73 % of control; (endpoint: mean tumor weight, dose: 83.0 mg/kg/injection, schedule: Q01DX011 (ip), vehicle: saline, higher = larger tumour) 29 % of control; (endpoint: mean tumor weight, dose: 125.0 mg/kg/injection, schedule: Q01DX011 (ip), vehicle: saline, higher = larger tumour) 27 % of control.

As for `CC(=O)O[C@@H]1[C@H]2O[C@H]2[C@H]2O[C@@]2(COC(=O)c2ccccc2)[C@H]1OC(C)=O`, the T/C was 24 % of control (endpoint: mean tumor weight, dose: 150.0 mg/kg/injection, schedule: Q01DX011 (ip), vehicle: carboxymethylcellulose (CMC), higher = larger tumour); 307 % of control (endpoint: mean tumor weight, dose: 200.0 mg/kg/injection, schedule: Q01DX011 (ip), vehicle: carboxymethylcellulose (CMC), higher = larger tumour); 119 % of control (endpoint: mean tumor weight, dose: 300.0 mg/kg/injection, schedule: Q01DX011 (ip), vehicle: carboxymethylcellulose (CMC), higher = larger tumour); 95 % of control (endpoint: median survival time, dose: 3.12 mg/kg/injection, schedule: Q01DX009 (ip), vehicle: gum acacia, higher = longer survival); 92 % of control under setting [1]; 115 % of control under setting [2]. The T/C under setting [3] is 87 % of control.

Regarding `CCOC(=O)C(C)(C)Br`, the T/C by setting is: (endpoint: mean tumor weight, dose: 75.0 mg/kg/injection, schedule: Q01DX011 (ip), vehicle: other, higher = larger tumour) 90 % of control; (endpoint: mean tumor weight, dose: 150.0 mg/kg/injection, schedule: Q01DX011 (ip), vehicle: other, higher = larger tumour) 114 % of control; (endpoint: mean tumor weight, dose: 300.0 mg/kg/injection, schedule: Q01DX011 (ip), vehicle: other, higher = larger tumour) 98 % of control; under setting [4], 68 % of control; (endpoint: mean tumor weight, dose: 600.0 mg/kg/injection, schedule: Q01DX011 (ip), vehicle: other, higher = larger tumour) 102 % of control; (endpoint: mean tumor weight, dose: 750.0 mg/kg/injection, schedule: Q01DX011 (ip), vehicle: other, higher = larger tumour) 37 % of control.

Regarding `CC1C[N-]CC(C)C1.CC1C[N-]CC(C)C1.CC1C[N-]CC(C)C1.CC1C[N-]CC(C)C1.[Cl][Rh][Cl]` (stereo unspecified), the T/C (endpoint: median survival time, dose: 1.5 mg/kg/injection, schedule: Q01DX009 (ip), vehicle: saline, higher = longer survival) is 104 % of control; the T/C (endpoint: median survival time, dose: 3.0 mg/kg/injection, schedule: Q01DX009 (ip), vehicle: saline, higher = longer survival) was 114 % of control; the T/C (endpoint: median survival time, dose: 6.0 mg/kg/injection, schedule: Q01DX009 (ip), vehicle: saline, higher = longer survival) was 105 % of control.

For the compound `CC(=O)c1c(O)c(C)c(O)c2c1OC1=CC(=O)C(C(C)=O)C(=O)C12C` (stereo unspecified), the T/C is, setting by setting: under setting [1], 111 % of control; under setting [2], 95 % of control and 110 % of control; under setting [3], 101 % of control and 102 % of control and 123 % of control; (endpoint: median survival time, dose: 50.0 mg/kg/injection, schedule: Q01DX009 (ip), vehicle: gum acacia, higher = longer survival) 101 % of control and 113 % of control and 115 % of control; (endpoint: median survival time, dose: 100.0 mg/kg/injection, schedule: Q01DX009 (ip), vehicle: gum acacia, higher = longer survival) 98 % of control and 116 % of control and 123 % of control; (endpoint: median survival time, dose: 200.0 mg/kg/injection, schedule: Q01DX009 (ip), vehicle: gum acacia, higher = longer survival) 106 % of control.

Turning to `Fc1ccc(CSc2ncnc3c2ncn3C2CCCCO2)cc1` (stereo unspecified), the T/C by setting is: (endpoint: mean tumor weight, dose: 200.0 mg/kg/injection, schedule: Q01DX011 (ip), vehicle: other, higher = larger tumour) 73 % of control; (endpoint: mean tumor weight, dose: 400.0 mg/kg/injection, schedule: Q01DX011 (ip), vehicle: other, higher = larger tumour) 33 % of control.

Regarding `CC(C)C(=O)[O][Sn]([CH3])([CH3])[CH3]`, the T/C (endpoint: median survival time, dose: 0.09 mg/kg/injection, schedule: Q01DX009 (ip), vehicle: saline, higher = longer survival) is 97 % of control; the T/C (endpoint: median survival time, dose: 0.19 mg/kg/injection, schedule: Q01DX009 (ip), vehicle: saline, higher = longer survival) is 101 % of control; the T/C (endpoint: median survival time, dose: 0.38 mg/kg/injection, schedule: Q01DX009 (ip), vehicle: saline, higher = longer survival) is 89 % of control and 105 % of control.

On to `CCCCn1ccnc1C`, for which the T/C reads like this: (endpoint: median survival time, dose: 1.56 mg/kg/injection, schedule: Q01DX009 (ip), vehicle: saline, higher = longer survival) 112 % of control; (endpoint: median survival time, dose: 3.13 mg/kg/injection, schedule: Q01DX009 (ip), vehicle: saline, higher = longer survival) 99 % of control; (endpoint: median survival time, dose: 12.5 mg/kg/injection, schedule: Q01DX009 (ip), vehicle: saline, higher = longer survival) 99 % of control; (endpoint: median survival time, dose: 25.0 mg/kg/injection, schedule: Q01DX009 (ip), vehicle: saline, higher = longer survival) 119 % of control; (endpoint: median survival time, dose: 50.0 mg/kg/injection, schedule: Q01DX009 (ip), vehicle: saline, higher = longer survival) 98 % of control.

Consider `O=NN(CCF)C(=O)NC1CCSc2ccccc21` (stereo unspecified), for which the T/C (endpoint: median survival time, dose: 24.0 mg/kg/injection, schedule: Q01DX001 (ip), vehicle: saline with Tween-80, higher = longer survival) is 88 % of control.

For the compound `C=CC(=O)NCNC(=O)C=C`, the T/C is 101 % of control (endpoint: mean tumor weight, dose: 44.0 mg/kg/injection, schedule: Q01DX011 (ip), vehicle: saline, higher = larger tumour); 48 % of control (endpoint: mean tumor weight, dose: 66.0 mg/kg/injection, schedule: Q01DX011 (ip), vehicle: saline, higher = larger tumour); 56 % of control (endpoint: mean tumor weight, dose: 100.0 mg/kg/injection, schedule: Q01DX011 (ip), vehicle: saline, higher = larger tumour).

For the compound `Nc1nncs1`, the T/C (endpoint: median survival time, dose: 6.25 mg/kg/injection, schedule: Q01DX009 (ip), vehicle: Klucel (hydroxypropylcellulose) (HPC), higher = longer survival) is 117 % of control and 122 % of control.

For `CC(=O)c1ccc(-c2ccccc2)cc1`, the T/C was 57 % of control (endpoint: mean tumor weight, dose: 125.0 mg/kg/injection, schedule: Q01DX011 (ip), vehicle: other, higher = larger tumour); 174 % of control (endpoint: mean tumor weight, dose: 222.0 mg/kg/injection, schedule: Q01DX011 (ip), vehicle: other, higher = larger tumour); 73 % of control (endpoint: mean tumor weight, dose: 250.0 mg/kg/injection, schedule: Q01DX011 (ip), vehicle: other, higher = larger tumour); 118 % of control (endpoint: mean tumor weight, dose: 333.0 mg/kg/injection, schedule: Q01DX011 (ip), vehicle: other, higher = larger tumour); 86 % of control under setting [4].

On to `ClCCN(CCCl)CC(Cl)COc1cccc2ccccc12` (stereo unspecified), for which the T/C reads like this: (endpoint: median survival time, dose: 1.25 mg/kg/injection, schedule: Q01DX009 (ip), vehicle: Klucel (hydroxypropylcellulose) (HPC), higher = longer survival) 92 % of control and 103 % of control; (endpoint: median survival time, dose: 2.5 mg/kg/injection, schedule: Q01DX009 (ip), vehicle: Klucel (hydroxypropylcellulose) (HPC), higher = longer survival) 96 % of control and 103 % of control; (endpoint: median survival time, dose: 5.0 mg/kg/injection, schedule: Q01DX009 (ip), vehicle: Klucel (hydroxypropylcellulose) (HPC), higher = longer survival) 97 % of control and 101 % of control; (endpoint: median survival time, dose: 10.0 mg/kg/injection, schedule: Q01DX009 (ip), vehicle: Klucel (hydroxypropylcellulose) (HPC), higher = longer survival) 92 % of control and 110 % of control; (endpoint: median survival time, dose: 20.0 mg/kg/injection, schedule: Q01DX009 (ip), vehicle: Klucel (hydroxypropylcellulose) (HPC), higher = longer survival) 96 % of control and 106 % of control; (endpoint: median survival time, dose: 40.0 mg/kg/injection, schedule: Q01DX009 (ip), vehicle: Klucel (hydroxypropylcellulose) (HPC), higher = longer survival) 97 % of control.
